Test results from patent US10358405B2, “Myricanol derivatives and uses thereof for treatment of neurodegenerative diseases” (UNIVERSITY OF SOUTH FLORIDA, priority 2012, dated 2019).
One block for each compound: values may come before it.

Experiments:
tau [1] = assay: Tau level reduction in HeLa cells stably transfected with tau treated with myricanol derivatives; format: cell-based; conditions: for reduction of levels of tau proteins: summary statement
Method: To assess the effects of the aqueous bayberry extract on overexpressed and endogenous tau levels, HeLa cells stably transfected with tau were treated with the myricanol derivatives.

tau [2] = assay: Tau-reducing-guided fractionation study of Myrica cerifera (tau destabilizer activity); format: cell-based; conditions: read-out: IC50 as tau destabilizer agent
Method: The bayberry root-bark powder (5×1 kg) was extracted with 5×2 L of toluene under agitation in a (5×) flask protected from light (3×24 h). The filtrate was concentrated and gave 58 g of extract. The toluene extract was purified using silica gel MPLC, eluting with a gradient of 0 to 40% ethyl acetate/hexanes to yield 27 g of (+)-aR,11S-myricanol [α]D^21=48.2 (c=1.1, Chloroform).

[3] = HeLa cells stably transfected with tau
[4] = Table 1, tau-reducing activity, result in words

Compound: COc1c2cc(c(O)c1OC)CCCCC1CCc3ccc(O)c-2c31 (stereo not drawn) [Compound 24]
- Results (tau [1]; [3]): active
- Results (tau [1]; [4]): active

Compound: Demethoxycurcumin [Compound 9]
- Results (tau [1]; [3]): active
- Results (tau [1]; [4]): active

Compound: COc1c2cc(c(O)c1OC)CCC/C=C/CCc1ccc(O)c-2c1 [Compound 18, Myricacene A (trans)]
- Results (tau [1]; [3]): active
- Results (tau [1]; [4]): active

Compound: COc1c2cc(c(O)c1OC)CCCC/C=C\Cc1ccc(O)c-2c1 [Compound 22, Myricacene B (cis)]
- Results (tau [1]; [3]): active
- Results (tau [1]; [4]): active
- tau-reducing activity, dose-dependent bioassay (tau [1]; concentration of 20 μg/mL): potent tau-reducing compound
- reduction of levels of tau proteins (tau [1]): potently reduce levels of tau proteins

Compound: COc1c2cc(c(O)c1OC)CCCC/C=C/Cc1ccc(O)c-2c1 [Compound 19, Myricacene B (trans)]
- Results (tau [1]; [3]): active
- Results (tau [1]; [4]): active

Compound: O=C(/C=C/c1ccc(O)cc1)CC(=O)/C=C/c1ccc(O)cc1 [Compound 10, Bisdemethoxycurcumin]
- Results (tau [1]; [3]): active
- Results (tau [1]; [4]): active

Compound: CCCCCCCCC[C@H](O)CC(=O)CCc1ccc(O)c(OC)c1 [Compound 11, [10]-Gingerol]
- Results (tau [1]; [3]): active
- Results (tau [1]; [4]): Active

Compound: COc1cc2c(c(O)c1OC)CCCC1CCCc3ccc(O)c-2c31 (stereo not drawn) [Compound 23]
- Results (tau [1]; [3]): very active
- Results (tau [1]; [4]): very active
- reduction of levels of tau proteins (tau [1]): potently reduce levels of tau proteins
- reduction of protein tau levels, time-dependent bioassay (tau [1]; treatment of HeLa cells for 24 hours): potently reduces protein tau levels

- IC50 (tau [2]): 35 µM
Compound: COc1c2cc(c(O)c1OC)CCCC[C@H](O)CCc1ccc(O)c-2c1 [Compound 1, Myricanol]
- Results (tau [1]; [4]): moderate activity

Compound: COc1c2cc(c(O)c1OC)CCC/C=C\CCc1ccc(O)c-2c1 [Compound 21, Myricacene A (cis)]
- Results (tau [1]; [3]): moderately active
- Results (tau [1]; [4]): moderately active
